According to EP4122917A1, “C2-THIOETHER […] AND TETRAMERS AND USE THEREOF” (priority 2021, dated 2023):

System: SARS-CoV-2 virus carrying the D614G mutation in the S protein
Assay type: cell-based
Conditions: read-out: IC50 (µM) SARS-CoV-2 (Vero E6)

Compound | IC50 [µM]
CC(=O)c1ccc(Sc2[nH]c3ccccc3c2C[C@H](NC(=O)CCC(CCC(=O)N[C@@H](Cc2c(Sc3ccc(C(C)=O)cc3)[nH]c3ccccc23)C(=O)O)(CCC(=O)N[C@@H](Cc2c(Sc3ccc(C(C)=O)cc3)[nH]c3ccccc23)C(=O)O)NC(=O)CN)C(=O)O)cc1 [Compound 7c] | 13.3
NCC(=O)NC(CCC(=O)N[C@@H](Cc1c(Sc2ccc([N+](=O)[O-])cc2)[nH]c2ccccc12)C(=O)O)(CCC(=O)N[C@@H](Cc1c(Sc2ccc([N+](=O)[O-])cc2)[nH]c2ccccc12)C(=O)O)CCC(=O)N[C@@H](Cc1c(Sc2ccc([N+](=O)[O-])cc2)[nH]c2ccccc12)C(=O)O [Compound 7a] | 3.02
